Values of other authors as cited in US7410504B2, “Adducts based on cyclic compounds and the use thereof as tanning agents and curing agents” (BASF Aktiengesellschaft, priority 2003, dated 2008).

Details: small amounts of glutaraldehyde, from 0.5 to 0.9% by weight based on the pelt weight

Shrinkage temperature: ≤ 70 °C
Structure (SMILES): O=CCCCC=O [glutaraldehyde]
